Marks after values point to notes of the source that are not given here.
Legend:
Megasphaera elsdenii = experiment: qPCR relative quantification of Megasphaera elsdenii; type: cell-based; conditions: 12 hours of incubation
Method: (§1) Rumen cannulated calves which received a mixed ration mainly composed of concentrate (90:10) were used as rumen fluid donor; feed composition is presented in Table 1. The inoculum was collected and filtered through two-layer surgical gauze and kept in thermo pots. Flavonoids (Table 2) plus 600 mg of concentrate (Table 1) and 60 mg of barley straw as the substrate were dosed by triplicate in preheated bottles (39° C.) and maintained under anaerobic conditions. Flavonoids isonaringin, neoeritrocin, poncirin were purchased from INDOFINE Chemical Company, Inc (USA). 10 ml of rumen fluid and 40 ml of incubation medium were added to the bottles (McDougall, El (1948) Studies on ruminant saliva. 1. The composition and output of sheep's saliva. Biochem J. 43(1) 99-109). Once the bottles were filled and the anaerobic condition was applied, the bottles were sealed and the incubation process was started in a hot water bath. Pressure readings were made at 2, 4, 6, 8, 12, 24, 36 and 48 hours. Each sample was incubated in triplicate in two sets or batches.
(§2) After 12 hours of incubation, one bottle (replicate) from each treatment was opened, pH was recorded and the bottle was sampled for volatile fatty acids (Jouany, J. P., 1982 Science des Aliments 2, 131-144), lactate (Taylor, K. A. C. C., 1996. Appl. Biochem. Biotechnol. Enzym. Eng. Biotechnol. 56, 49-58) and ammonia (Chaney, A. L., Marbach, E. P., 1962. Clin. Chem. 8, 130-132) analyses.
(§3) The environmental DNA was extracted using the technique proposed by Yu and Morrison (2004). Quantification of Streptococcus bovis, Megasphaera elsdenii and Selenomonas ruminantium DNA was done by qPCR using specific primers (Tajima, K. et al. 2001. Appl. Environ. Microb. 67, 2766-2774; Ouwerkerk, D., et al. 2002. J. Appl. Microbiol. 92, 753-758). Results were statistically analyzed using the PROC MIXED procedure of SAS statistical package (SAS, 2000, User's guide: Statistics, version 8 editions inst., Inc., Cary, N.C.). The least significant difference was used to compare the means. Differences between means in which P<0.05 were accepted as significant.

[1] = system: methanogenic (archea) populations; experiment: Methane production in "in vitro" rumen fluid culture; type: cell-based, calves; design: Average methane production / Accumulated methane production / Methane production / Cumulative methane production: unit not given here
Source text: (§4) Two trials following an identical experimental protocol were designed to study the effect of different pure flavonoids on rumen fermentation using a simulatory “in vitro” system based on the experimental protocol described by Theodorou M K et al. (1994) Animal Feed Science and Technology, 48 (3), p. 185-197; Mauricio, R. M., et al. (1999) Animal Feed Science and Technology 79, 321-330.
as §1, with “Pressure readings were made at 2, 4, 6, 8, 12, 24, 36 and 48 hours.” left out
The effects of flavonoids substances on fermentation activity of certain archea populations which are theoretically responsible for the methane production were analyzed.
The experimental design allows determining whether the effect of flavonoids on methane reduction was derived from a general reduction in microbial activity and biogas production or contrarily flavonoid affects specifically on methanogenic (archea) populations. The presence of flavonoids in the culture medium reduced methane contribution in the total biogas production (P<0.05) although, again, the aforementioned impact was heterogeneous.

[2] = system: "in vitro" ruminal fluid cultures; experiment: Ammonia (N-NH3) concentration in "in vitro" ruminal fluid cultures; type: cell-based, calves; conditions: 72 h
[3] = system: "in vitro" ruminal fluid cultures; experiment: as above; type: cell-based, calves
Source text: as §4, §1, §2

ruminal bacteria = experiment: Bacterial DNA concentration by qPCR; type: cell-based, calves; conditions: 12 hours of incubation
Method: as §1, §2, §3

Streptococcus bovis = experiment: qPCR relative quantification of Streptococcus bovis; type: cell-based; conditions: 12 hours of incubation
Method: as §1, §2, §3

[4] = system: "in vitro" rumen fluid culture; experiment: Biogas production in "in vitro" rumen fluid culture (pressure meter); type: cell-based, calves; design: Average biogas production / Cumulative biogas production / Biogas production: unit not given here; conditions: for Average biogas production: average over doses and incubation times
Method: as §4
Gas production was determined from a semi-automatic pressure meter, the relationship between pressure levels and the produced gas volume was previously calculated.
as §1, with “Pressure readings were made at 2, 4, 6, 8, 12, 24, 36 and 48 hours.” left out

[5] = system: "in vitro" ruminal fluid cultures; experiment: Volatile fatty acid concentration and molar proportions in "in vitro" ruminal fluid cultures; type: cell-based, calves
Source text: as §4, §1
[…] P., 1982 Science des Aliments 2, 131-144), lactate (Taylor, K. A. C. C., 1996. Appl. Biochem. Biotechnol. Enzym. Eng. Biotechnol. 56, 49-58) and ammonia (Chaney, A. L., Marbach, E. P., 1962. Clin. Chem. 8, 130-132) analyses.

[6] = system: "in vitro" ruminal fluid culture; experiment: Lactate concentration in "in vitro" ruminal fluid culture; type: cell-based, calves; conditions: 12 hours of incubation
Source text: as §4, §1, §2

Selenomonas ruminantium = experiment: qPCR relative quantification of Selenomonas ruminantium; type: cell-based; conditions: 12 hours of incubation
Method: as §1, §2, §3

[7] = Exp 1, average over doses and incubation times, listed as neohesperidin

`COc1ccc([C@@H]2CC(=O)c3c(O)cc(O[C@@H]4O[C@H](CO)[C@@H](O)[C@H](O)[C@H]4O[C@@H]4O[C@@H](C)[C@H](O)[C@@H](O)[C@H]4O)cc3O2)cc1O` [Neohesperidin, neohesperidin] was tested, and the “Relative Quantification 2^(ΔΔCt) M. elsdenii” value (Megasphaera elsdenii) was 1.35 ^c, the “Relative Quantification 2^(ΔΔCt) M. elsdenii” value (Megasphaera elsdenii; listed as neohesperidin) was “improved” and the “Dosage effect on methane production” value ([1]; Exp 1, 200 vs 500 mg/kg DM) was “more reduced by increasing the dose”. For the same molecule, the Accumulated methane production ([1]; Exp 1, 12 h) was 18.02, the “Proportion of methane in the produced biogas” value (“Proportion of methane” for short) ([1]; Exp 1, 12 h) was 10.21 and the Accumulated methane production ([1]; Exp 1, 24 h) was 23.15. The “Proportion of methane” value ([1]; Exp 1, 24 h) was 12.34, the Accumulated methane production ([1]; Exp 1, 48 h) was 28.84 and the “Proportion of methane” value ([1]; Exp 1, 48 h) was 15.91. For the same molecule, the Accumulated methane production ([1]; Exp 1, 72 h) was 32.18, the “Proportion of methane” value ([1]; Exp 1, 72 h) was 16.20 and the “Proportion of methane” value ([1]; Exp 1, average over doses and incubation times) was 13.66^d. For the same molecule, the Average methane production [1, 7] was “decreased”, the “Proportion of methane” value [1, 7] was 13.70 and the Methane production ([1]; Exp 1, dose 1, 0.2 g/kg DM) was 27.63. For the same molecule, the “Proportion of methane” value ([1]; Exp 1, dose 1, 0.2 g/kg DM) was 13.98, the Methane production ([1]; Exp 1, dose 2, 0.5 g/kg DM) was 23.46 and the “Proportion of methane” value ([1]; Exp 1, dose 2, 0.5 g/kg DM) was 13.35. For the same molecule, the Average methane production ([1]; Exp 2 (second trial), average over doses and incubation times) was 30.44^b, the Cumulative methane production ([1]; Exp 2, 12 h) was 22.52 and the Cumulative methane production ([1]; Exp 2, 24 h) was 27.98. It also gave a Cumulative methane production ([1]; Exp 2, 48 h) of 34.31, a Cumulative methane production ([1]; Exp 2, 72 h) of 36.95 and a Methane production ([1]; Exp 2, dose 1, 0.2 g/kg DM) of 30.1. It also gave a Methane production ([1]; Exp 2, dose 2, 0.5 g/kg DM) of 30.8, a N-NH3 concentration [2] of 339.17 mg/L and a N-NH3 concentration ([3]; 0 h (initial constant value)) of 149.99 mg/L. The N-NH3 concentration ([3]; 12 h) was 168.38 mg/L, the “N-NH3 concentration, average (M)” value ([3]; average over incubation times) was 219.18 mg/L and the “Bacteria DNA” value (ruminal bacteria) was 23.93 ^ab μg/ml. For the same molecule, the “Bacteria DNA” value (ruminal bacteria; listed as neohesperidin) was “increase did only reach statistical significance”, the “Relative Quantification 2^(ΔΔCt) S. bovis” value (Streptococcus bovis) was 0.25 and the Cumulative biogas production ([4]; Exp 1, 12 h incubation) was 175.93. It also gave a Cumulative biogas production ([4]; Exp 1, 24 h incubation) of 217.84, a Cumulative biogas production ([4]; Exp 1, 48 h incubation) of 253.99 and a Cumulative biogas production ([4]; Exp 1, 72 h incubation) of 275.06. For the same molecule, the Average biogas production ([4]; Exp 1) was 230.71^e, the Average biogas production ([4]; Exp 1, listed as neohesperidin) was 230.7 and the Biogas production ([4]; Exp 1, dose 1, 0.2 g/kg DM) was 238.13. For the same molecule, the Biogas production ([4]; Exp 1, dose 2, 0.5 g/kg DM) was 223.28, the “Dosage effect on gas production” value ([4]; Exp 1, inclusion levels 200 and 500 mg/kg) was “more pronounced dosage effect” and the Average biogas production ([4]; Exp 2 (second trial)) was 268.16^c. The Cumulative biogas production ([4]; Exp 2, 12 h) was 215.60, the Cumulative biogas production ([4]; Exp 2, 24 h) was 256.18 and the Cumulative biogas production ([4]; Exp 2, 48 h) was 292.28. It also gave a Cumulative biogas production ([4]; Exp 2, 72 h) of 308.57, a Biogas production ([4]; Exp 2, dose 1, 0.2 g/kg DM) of 267.1 and a Biogas production ([4]; Exp 2, dose 2, 0.5 g/kg DM) of 269.2. For the same molecule, the “% Acetate, molar ratio” value ([5]; 0 h) was 62.51 mol/100 mol, the “% Butyrate, molar ratio” value ([5]; 0 h) was 9.07 mol/100 mol and the “% Propionate, molar ratio” value ([5]; 0 h) was 20.03 mol/100 mol. For the same molecule, the “A/P rate (acetate/propionate)” value ([5]; 0 h) was 3.12, the VFA concentration ([5]; 0 h (initial constant value)) was 13.78 mmol/L and the “% Acetate, molar ratio” value ([5]; 12 h) was 54.68 mol/100 mol. For the same molecule, the “% Butyrate, molar ratio” value ([5]; 12 h) was 9.68 mol/100 mol, the “% Propionate, molar ratio” value ([5]; 12 h) was 30.05 mol/100 mol and the “A/P rate (acetate/propionate)” value ([5]; 12 h) was 1.82. For the same molecule, the VFA concentration ([5]; 12 h) was 36.97 mmol/L, the “% Acetate, molar ratio” value ([5]; 72 h) was 55.68 mol/100 mol and the “% Butyrate, molar ratio” value ([5]; 72 h) was 9.96 mol/100 mol. The “% Propionate, molar ratio” value ([5]; 72 h) was 26.91 mol/100 mol, the “A/P rate (acetate/propionate)” value ([5]; 72 h) was 2.07 and the VFA concentration ([5]; 72 h) was 53.04 mmol/L. For the same molecule, the “% Acetate, molar ratio, average (μ)” value ([5]; average over incubation times) was 57.62 mol/100 mol, the “% Butyrate, molar ratio, average (μ)” value ([5]; average over incubation times) was 9.57 ^a mol/100 mol and the “% Propionate, molar ratio, average (M)” value ([5]; average over incubation times) was 25.66 ^b mol/100 mol. For the same molecule, the “VFA concentration, average (μ)” value ([5]; average over incubation times) was 34.60 mmol/L, the Lactate [6] was 45.8 mg/L and the Lactate ([6]; listed as neohesperidin) was “tended to moderate the recorded increase”. The “Relative Quantification 2^(ΔΔCt) S. ruminantium” value (Selenomonas ruminantium) was 0.53.
